Results: the supplement of paper PMC13380429

How the values were obtained:
Conditions in all cases: 72 h
Calu-3 [1] = assay: drug sensitivity score (DSS) for viability; higher = more toxic; extreme values may be limits of the assay
Vero E6 [2] = assay: as above
U2OS [3] = assay: as above
Caco-2 [4] = assay: as above
HepG2 [5] = assay: as above
Calu-3 [6] = assay: cell viability relative to DMSO; higher = less toxic
Vero E6 [7] = assay: as above
U2OS [8] = assay: as above
Caco-2 [9] = assay: as above
HepG2 [10] = assay: as above
Calu-3 [11] = assay: relative viability EC50 (midpoint between 100% and the lowest measured viability); higher = less toxic
Vero E6 [12] = assay: as above
U2OS [13] = assay: as above
Caco-2 [14] = assay: as above
HepG2 [15] = assay: as above

Structure (SMILES)	drug sensitivity score (Calu-3 [1])	drug sensitivity score (Vero E6 [2])	drug sensitivity score (U2OS [3])	drug sensitivity score (Caco-2 [4])	drug sensitivity score (HepG2 [5])	cell viability (Calu-3 [6]; 1 nM) [%]	cell viability (Calu-3 [6]; 10 nM) [%]	cell viability (Calu-3 [6]; 100 nM) [%]	cell viability (Calu-3 [6]; 1000 nM) [%]	cell viability (Calu-3 [6]; 10000 nM) [%]	cell viability (Vero E6 [7]; 1 nM) [%]	cell viability (Vero E6 [7]; 10 nM) [%]	cell viability (Vero E6 [7]; 100 nM) [%]	cell viability (Vero E6 [7]; 1000 nM) [%]	cell viability (Vero E6 [7]; 10000 nM) [%]	cell viability (U2OS [8]; 1 nM) [%]	cell viability (U2OS [8]; 10 nM) [%]	cell viability (U2OS [8]; 100 nM) [%]	cell viability (U2OS [8]; 1000 nM) [%]	cell viability (U2OS [8]; 10000 nM) [%]	cell viability (Caco-2 [9]; 1 nM) [%]	cell viability (Caco-2 [9]; 10 nM) [%]	cell viability (Caco-2 [9]; 100 nM) [%]	cell viability (Caco-2 [9]; 1000 nM) [%]	cell viability (Caco-2 [9]; 10000 nM) [%]	cell viability (HepG2 [10]; 1 nM) [%]	cell viability (HepG2 [10]; 10 nM) [%]	cell viability (HepG2 [10]; 100 nM) [%]	cell viability (HepG2 [10]; 1000 nM) [%]	cell viability (HepG2 [10]; 10000 nM) [%]	relative viability EC50 (Calu-3 [11]) [µM]	relative viability EC50 (Vero E6 [12]) [µM]	relative viability EC50 (U2OS [13]) [µM]	relative viability EC50 (Caco-2 [14]) [µM]	relative viability EC50 (HepG2 [15]) [µM]
CC(C)c1ccc(NC(=O)Cn2cnc3c2c(=O)n(C)c(=O)n3C)cc1	0	0	0	0	0	87	81.2	92.9	90	94.8	91.6	107	98.7	102	101	99.7	97.2	101	100	98.2	100	96	92.5	89.1	95.9	97.3	106	93.4	112	98.5	> 10	> 10	> 10	> 10	> 10
CN1CCC(COc2cnc(-c3cccc(Cn4nc(-c5cccc(C#N)c5)ccc4=O)c3)nc2)CC1	0	0	0	0	0	103	110	93.3	101	110	102	97.8	95.7	95.9	106	96.3	97.4	106	99	102	96.1	99.7	93.8	100	94.9	106	93.4	106	95.2	99.2	> 10	> 10	> 10	> 10	> 10
COCCN1CCN(Cc2ccc(-c3n[nH]c4c3C(=O)c3c(NC(=O)NN5CCOCC5)cccc3-4)cc2)CC1	13.4	16	17.1	10.8	21.9	105	109	86.5	39	55.8	97.8	102	98.2	13.1	12.5	102	107	94.5	9.8	19	97.9	102	91.1	49	55	107	99.8	51	15.4	11.3	0.165	0.306	0.269	0.186	0.0894
NC1CCN(c2cccc(Cl)n2)CC1	0	0	0	0	0	89.4	93	99.5	87.9	102	101	100	94.3	96	96.2	101	101	101	102	95.2	95.9	97	96.6	103	96.5	94.8	100	102	111	101	> 10	> 10	> 10	> 10	> 10
C#C[C@]1(O)CC[C@H]2[C@@H]3CCC4=CC(=NO)CC[C@@H]4[C@H]3CC[C@@]21CC (mixture of isomers) [norelgestromin]	0	0	0	0	0	102	95.2	103	93.5	101	102	101	92	99.1	103	99.1	101	94.4	101	98.6	89	94.1	91.7	98.3	98.5	95.9	101	105	108	110	> 10	> 10	> 10	> 10	> 10
CSc1ccc([C@H]2CN3CCC[C@H]3c3ccccc32)cc1 (racemic) [McN-5652-(+/-)]	0	0	0	0	0	102	101	106	84.9	105	99.6	102	102	96.3	104	97.8	105	96.8	105	102	92.2	100	96.1	103	98.7	102	89.9	98.5	90.3	105	> 10	> 10	> 10	> 10	> 10
O=C(O)/C=C1\CCCc2ccccc2[C@H]1O (racemic) [NCS-382]	0	0	0	0	0.1	93.4	95.3	99.3	95.5	101	104	97.2	103	99.1	101	96.7	102	96	102	97.2	98.6	99.3	91.8	97	88.7	108	96.5	102	99.1	87.2	> 10	> 10	> 10	> 10	> 10
OC[C@H]1NC[C@@H](O)[C@@H](O)[C@@H]1O [1-deoxymannojirimycin]	0	0	0	0	0	106	96.8	97	95.4	90.8	99.1	93	98.2	96.8	107	96.8	102	95.8	100	108	95.3	96.8	98.2	97	104	109	96.2	94.5	93.1	97.7	> 10	> 10	> 10	> 10	> 10
CCCN(C/C=C/I)C1CCc2cccc(O)c2C1 (stereo not given) [8-hydroxy-PIPAT]	0	0	0	0	0.2	101	101	112	103	99.5	97.7	99.7	100	99.3	92.9	103	100	102	97.6	97.8	107	95.3	100	93.8	101	101	105	111	104	83.4	> 10	> 10	> 10	> 10	> 10
C#Cc1cccc2c1c(C(=O)c1ccc(Cn3c(C)nc4cnccc43)c(F)c1)cn2C(=O)N(C)C [ABT-491]	0	0	0	0	0	97.2	102	100	106	106	103	97.1	97.1	98.4	95.5	99.7	98.3	96.6	98.5	94.7	101	86.1	91.1	91.3	93.3	102	110	95.6	100	91.4	> 10	> 10	> 10	> 10	> 10
c1ccc(C(NCCNC(c2ccccc2)c2ccccc2)c2ccccc2)cc1 [AMN-082]	0	0	0	0	0.2	99	97.7	96.9	95.7	92.2	104	95	95	93.6	114	96.5	97.8	96.7	105	93.8	98.9	104	96.5	94.8	94.8	103	92.4	108	98.9	87.4	> 10	> 10	> 10	> 10	> 10
COc1cc(C(=O)c2c(C)oc3c(O)c(OC)ccc23)cc(OC)c1OC [BNC105]	27	38.3	31.5	30.3	24.7	106	54.6	33.7	39.2	30.9	34.9	22.7	22.8	27.9	30.4	100	44.7	20.9	19.3	19.7	62.8	39.6	41.4	37.9	41.1	86.2	60.4	42.6	35.7	38	0.0078	< 0.001	0.0073	< 0.001	0.0055
Nc1n[nH]c2nc3ccccc3nc12 [CDK1-5-inhibitor]	1.4	0	0	0	0	98.3	102	97.1	86	90.6	99.8	96.1	100	100	97.4	86.3	95.2	95.9	100	102	101	105	97.8	96.2	104	102	98.6	107	101	104	> 10	> 10	> 10	> 10	> 10
O=C1C2C=Nc3ccccc3C2=NN1c1ccc(Cl)cc1 (stereo not given) [CGS-9896]	0	0	0	0.6	0	93.7	104	87.9	95.8	103	99.8	103	92.6	97.9	95.8	95.6	100	91.1	94	91.3	103	101	94.2	93	82.7	97.1	88.6	91	94.1	102	> 10	> 10	> 10	> 10	> 10
